From patent publication US11208427B2, “Dicaffeoyl spermidine derivative glycosides and use thereof” (Jinan University, priority 2016, dated 2021)
Marks after values point to notes of the source that are not given here.

Legend:
[1] = oxygen radical absorbance capacity (ORAC) experiment; details: relative to Trolox; AAPH, fluorescein
Description: The antioxidant activity of the compounds was evaluated by using the oxygen radical absorbance capacity (ORAC) experiment. The detailed experimental procedure is as follows. 0.248 g of AAPH (2,2′-azobisisobutylamidine dihydrochloride) was added to a 50 mL phosphate buffer system to formulate a 18.3 mM AAPH stock solution. 20 μL of phosphate buffer, 20 μL solution of sample to be tested or standard substance Trolox (concentration of 6.25 μM) and 20 μL of fluorescent substance of disodium fluorescein (FL, concentration of 630 nM) were added to the wells of a 96-well plate in order. Then, 140 μL of AAPH (concentration of 18.3 mM) was quickly added to the wells of the 96-well plate, which was immediately placed in a GENios […] microplate reader manufactured by Tecan, Switzerland, the excitation wavelength was set as 485 nm and the emission wavelength was set as 527 nm. The fluorescence intensity was measured every 2 minutes and recorded for a total of 100 min.
The antioxidant capacity of the active substance is calculated as follows: Relative ORAC value=(AUCsample−AUCblank)/(AUCtrolox−AUCblank). Wherein, AUCsample refers to the integral area under the fluorescence decay curve of the test sample, AUCtrolox refers to the integral area under the fluorescence decay curve of the standard substance Trolox, and AUCblank refers to the integral area under the fluorescence decay curve when the test sample or the standard substance Trolox is not added.

[2] = test system: Senile dementia fruit fly (Aβ42; P35*H29.3); experiment: learning and memory (olfactory short-term memory, T-Maze) of Senile dementia fruit fly; type: in vivo; details: performance index, 100 μM in feed, n = 6
Source text: W^1118 (isoCJ1), as a background fruit fly of control group in the experiment, was abbreviated as “2U”. The fruit flies that successfully introduced with the pathogenic Aβ42 protein were (UAS-Aβ42; abbreviated as “H29.3”). This strain of fruit flies was hybridized with the fruit fly expressing the Gal4 promoter in whole brain, and the fruit fly strain carrying elav-GAL4^c155 (P35) and Aβ42 was obtained.
Three groups of drug-free control of healthy fruit fly, drug-free control of disease fruit fly, and dose disease fruit fly were set in the experiment.
All parents of tested fruit flies were housed and propagated at a constant temperature of 24° C. and a humidity of 42% RH (Relative humidity). On the first day after the emergence of the fruit flies, the fruit flies of control group and disease group, as well as the fruit flies to be administered were anesthetized with carbon dioxide, and then the fruit flies of the correct characters were selected into the glass tube containing food. During the dosing period, all tested fruit flies were kept in an incubator with a constant temperature of 28° C. and a constant humidity of 42% to ensure the drug taking efficiency of the fruit flies. Each day the fruit flies were administered for 4 hours, and the drug was administered from the second day after the fruit flies were selected until the 8th day.
The drugs administered were prepared on the second day after the fruit fly selection, and were administered to the fruit flies on the day of preparation. The drugs were dissolved by 100% DMSO to a concentration of 10 mM. When preparing the working solution, the 10 mM stock solution was diluted to 100 μM with 4% sucrose. In addition, the fruit flies of control group were fed sucrose water containing 1% DMSO. For each Performance Index, two tubes of fruit fly groups are required, each tube containing about 100 fruit flies.
Experiments were conducted in a light proof behavior room with constant temperature of 25° C., constant humidity of 70%. The method can be found in references^[1-3].
1) During the training stage, about 100 flies were loaded into a training tube provided with a copper mesh cross electrode. Two kinds of odors of octanol (OCT) and methylcyclohexanol (MCH) were successively introduced for each 60 s with an intervals for 45 s of fresh air. 60 V pulsed electrical shock stimulation (US, pulse duration 1.5 s, interval 3.5 s) was applied to the fruit flies while introducing the 1st odor. No electrical shock was applied when the second odor (CS−) was introduced. Thereby one training cycle was completed.
2) In the transient memory (learning) ability test, the fruit flies that completed one training cycle were immediately transferred to the selection point of T-Maze, while CS+ and CS− were introduced from the opposite two directions. After two minutes of selection, the fruit flies on both sides were collected separately and counted after anesthesia or sacrifice. The calculation formula for the performance index (PI) is as follows: PI=[(CS−)−(CS+)]/[(CS−)+(CS+)]×100.
Using OCT and MCH as CS+ for training and testing respectively, the average of the two PIs obtained was used as PI for one experiment. […] When performing the activity test, the short-term memory deficit tests for the olfactory sensation of the non-administered healthy flies with the same genetic background (2U*H29.3), non-administered Senile dementia disease flies (P35*H29.3), and test drug administered Senile dementia disease flies were also conducted, and their total learning and memory performance indexes (PIs) was calculated respectively. The learning and memory performance index of the test drug administered Senile dementia disease flies was compared with the performance index of the non-administered healthy flies with the same genetic background (2U*H29.3), and the performance index of the non-administered Senile dementia disease flies (P35*H29.3), to evaluate effect of the test drugs against Senile dementia. […]

[3] = test system: respiratory syncytial virus (RSV); experiment: microbe, parasite or virus in culture; type: cell-based; details: for SI = CC50/IC50: RSV, HEp-2 cells; for IC50: RSV in HEp-2 cells, CPE, 60-72 hours
Description: (§1) 1) HEp-2 cells were seeded in 96-well cell culture plates at 100 μL/well and the cell density was 2.5×10^5/mL. The cells were cultured in a 37° C., 5% CO2 incubator and grown into a cell single layer over about 20 h.
2) The culture fluid in the 96-well plate was discarded and the sample to be tested was half diluted by using maintenance solution with the starting concentration of the monomeric compound being 50 μM, and 50 μL of sample and 50 μL of 100×TCID50 of virus dilution being added into each well. The positive control drug Ribavirin group, virus control group and cell control group were set and placed in a 37° C., 5% CO2 incubator for culture.
3) The culture was continued for 60-72 hours, and the viral lesions in each group were recorded when the lesions were completely developed in the virus control group.
4) The virus-induced cytopathic effect was recorded as follows: no cellular lesion was recorded as “−”, 0 to 25% cellular lesions was recorded as “+”, 25% to 50% cellular lesion was recorded as “++”, 50%˜75% of cellular lesion was recorded as “+++”, and 75% to 100% of cellular lesion was recorded as “++++”. The sample concentration corresponding to the “++” lesion level is the half inhibitory concentration IC50 of the sample against the virus.
5) Three replicates were performed independently for each experiment.

[4] = test system: HEp-2 cells; experiment: Cytotoxicity assay (MTT); type: cell-based; details: 72 hours
Description: as §1
(§2) 2) The culture fluid in the 96-well plate was discarded and the sample to be tested was half diluted into different concentrations by using maintenance solution. For each dilution, 3 replicate wells were set at 100 μL/well, and cell control wells were also set at the same time. Then they were placed in the incubator to continue the culture.
(§3) 3) The cytopathic effect caused by sample toxicity was observed every day. After 72 hours, the culture solution was discarded, and according to the MTT method, 30 μL of 5 mg/mL MTT solution was added into each well. They were placed in the incubator to continue the incubation for 4 h in dark.

[5] = Cytotoxicity assay (MTT); type: cell-based; details: human, HEp-2 cells
Description: as §1, §2, §3

Row | Structure (SMILES) | ORAC value [1] [μmol TE/μmol] | PI (100 μM) ([2]; experiment a) | PI (100 μM) ([2]; experiment b) | PI (100 μM) ([2]; experiment c) | SI = CC50/IC50 [3] | IC50 ([3]; human respiratory syncytial virus) [µM] | MNCC [4] [µM] | CC50 at 72 h [5] [µM] | IC50 [3] [µM] | CC50 [4] [µM]
1 | O=C(O[C@@H]1Cc2c(O)cc(O)cc2O[C@@H]1c1cc(O)c(O)c(O)c1)c1cc(O)c(O)c(O)c1 [EGCG, epigallocatechin gallate, reference compound] | 1.48 ± 0.02 | – | – | – | – | – | – | – | – | –
2 | CC12CC3CC(C)(C1)CC(N)(C3)C2 [Memantine, reference compound] | – | 43.1 ± 0.9*** | 42.7 ± 0.9*** | 44.2 ± 2.1*** | – | – | – | – | – | –
3 | NC(=O)c1ncn([C@@H]2O[C@H](CO)[C@@H](O)[C@H]2O)n1 [Ribavirin, reference compound] | – | – | – | – | 15 | 2.5 | 15.32 ± 4.31 | 37.9 ± 3.82 | – | –
4 | O=C(/C=C/c1ccc(O)c(O[C@@H]2O[C@H](CO)[C@@H](O)[C@H](O)[C@H]2O)c1)NCCCNCCCCNC(=O)CCc1ccc(O)c(O)c1 [formula III] | 1.87 ± 0.04 | 42.9 ± 1.6*** | – | – | >4 | – | >100 | – | 25 | > 100
5 | O=C(/C=C/c1ccc(O)c(O)c1)NCCCNCCCCNC(=O)CCc1ccc(O[C@@H]2O[C@H](CO)[C@@H](O)[C@H](O)[C@H]2O)c(O)c1 [formula II] | 2.04 ± 0.04 | 35.5 ± 3.8* | – | – | >4 | – | >100 | – | 25 | > 100
6 | O=C(/C=C/c1ccc(O)c(O)c1)NCCCNCCCCNC(=O)CCc1ccc(O)c(O[C@@H]2O[C@H](CO)[C@@H](O)[C@H](O)[C@H]2O)c1 [formula IV] | 1.73 ± 0.04 | 42.2 ± 2.1*** | – | – | >4 | – | >100 | – | 25 | > 100
7 | O=C(/C=C\c1ccc(O)c(O[C@@H]2O[C@H](CO)[C@@H](O)[C@H](O)[C@H]2O)c1)NCCCNCCCCNC(=O)CCc1ccc(O[C@@H]2O[C@H](CO)[C@@H](O)[C@H](O)[C@H]2O)c(O)c1 [formula VIII] | 3.07 ± 0.02 | – | 32.2 ± 2.3* | – | >2 | – | >100 | – | – | > 100
8 | O=C(/C=C/c1ccc(O)c(O[C@@H]2O[C@H](CO)[C@@H](O)[C@H](O)[C@H]2O)c1)NCCCNCCCCNC(=O)CCc1ccc(O)c(O[C@@H]2O[C@H](CO)[C@@H](O)[C@H](O)[C@H]2O)c1 [formula VII] | 1.02 ± 0.02 | – | 44.6 ± 2.5*** | – | >2 | – | >100 | – | – | > 100
9 | O=C(/C=C/c1ccc(O[C@@H]2O[C@H](CO)[C@@H](O)[C@H](O)[C@H]2O)c(O)c1)NCCCNCCCCNC(=O)CCc1ccc(O)c(O)c1 [formula V] | 2.96 ± 0.03 | 35.0 ± 1.3* | – | – | >4 | – | >100 | – | 25 | > 100
10 | O=C(CCc1ccc(O[C@@H]2O[C@H](CO)[C@@H](O)[C@H](O)[C@H]2O)c(O)c1)NCCCCNCCCNC(=O)CCc1ccc(O[C@@H]2O[C@H](CO)[C@@H](O)[C@H](O)[C@H]2O)c(O)c1 [formula XIII] | 2.06 ± 0.04 | – | 42.5 ± 3.0*** | – | >4 | – | >100 | – | 25 | > 100
11 | O=C(CCc1ccc(O)c(O[C@@H]2O[C@H](CO)[C@@H](O)[C@H](O)[C@H]2O)c1)NCCCCNCCCNC(=O)CCc1ccc(O)c(O[C@@H]2O[C@H](CO)[C@@H](O)[C@H](O)[C@H]2O)c1 [formula XII] | 1.23 ± 0.04 | – | 33.5 ± 3.0** | – | >2 | – | >100 | – | – | > 100
12 | O=C(CCc1ccc(O)c(O[C@@H]2O[C@H](CO)[C@@H](O)[C@H](O)[C@H]2O)c1)NCCCCNCCCNC(=O)CCc1ccc(O[C@@H]2O[C@H](CO)[C@@H](O)[C@H](O)[C@H]2O)c(O)c1 [formula XIV] | 1.81 ± 0.05 | – | – | 44.6 ± 1.2*** | >2 | – | >100 | – | – | > 100
13 | O=C(CCc1ccc(O)c(O)c1)NCCCCNCCCNC(=O)CCc1ccc(O)c(O[C@@H]2O[C@H](CO)[C@@H](O)[C@H](O)[C@H]2O)c1 [formula XI] | 2.07 ± 0.03 | – | 37.2 ± 2.9*** | – | >4 | – | >100 | – | 25 | > 100
